This passage reports IC50 results from patent publication US8710043B2, “TRPM8 antagonists and their use in treatments” (Amgen Inc., priority 2011, dated 2014).

Where a name gives a salt, the structure may show the parent alone.

For this assay, the target named is T1, human TRPM8 (Homo sapiens, UniProt Q7Z2W7).
T1 construct: expressed in transfected cells; host or cells: Chinese hamster ovary (CHO) cells, T-REx tetracycline-inducible system, co-transfected with aequorin
Put plainly: Luminescence readout assay for measuring intracellular calcium, icilin activation. As to conditions: CHO cells expressing human TRPM8, aequorin luminescence, 1 μM icilin activation; read-out: hTRPM8 IC50. The format is cell-based. In short, it runs like this: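 The read-out was luminescence reporting intracellular calcium, recorded by a CCD-based luminometer. Compounds were preincubated for 2.5 min before agonist challenge with 1 μM icilin. Human TRPM8 was expressed in a stable T-REx CHO line, induced with 0.5 μg/mL tetracycline the day before.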
A general note: Calcium flux is commonly read through the fluorescence of an indicator in the cells.

T1 sequence (Q7Z2W7 whole entry): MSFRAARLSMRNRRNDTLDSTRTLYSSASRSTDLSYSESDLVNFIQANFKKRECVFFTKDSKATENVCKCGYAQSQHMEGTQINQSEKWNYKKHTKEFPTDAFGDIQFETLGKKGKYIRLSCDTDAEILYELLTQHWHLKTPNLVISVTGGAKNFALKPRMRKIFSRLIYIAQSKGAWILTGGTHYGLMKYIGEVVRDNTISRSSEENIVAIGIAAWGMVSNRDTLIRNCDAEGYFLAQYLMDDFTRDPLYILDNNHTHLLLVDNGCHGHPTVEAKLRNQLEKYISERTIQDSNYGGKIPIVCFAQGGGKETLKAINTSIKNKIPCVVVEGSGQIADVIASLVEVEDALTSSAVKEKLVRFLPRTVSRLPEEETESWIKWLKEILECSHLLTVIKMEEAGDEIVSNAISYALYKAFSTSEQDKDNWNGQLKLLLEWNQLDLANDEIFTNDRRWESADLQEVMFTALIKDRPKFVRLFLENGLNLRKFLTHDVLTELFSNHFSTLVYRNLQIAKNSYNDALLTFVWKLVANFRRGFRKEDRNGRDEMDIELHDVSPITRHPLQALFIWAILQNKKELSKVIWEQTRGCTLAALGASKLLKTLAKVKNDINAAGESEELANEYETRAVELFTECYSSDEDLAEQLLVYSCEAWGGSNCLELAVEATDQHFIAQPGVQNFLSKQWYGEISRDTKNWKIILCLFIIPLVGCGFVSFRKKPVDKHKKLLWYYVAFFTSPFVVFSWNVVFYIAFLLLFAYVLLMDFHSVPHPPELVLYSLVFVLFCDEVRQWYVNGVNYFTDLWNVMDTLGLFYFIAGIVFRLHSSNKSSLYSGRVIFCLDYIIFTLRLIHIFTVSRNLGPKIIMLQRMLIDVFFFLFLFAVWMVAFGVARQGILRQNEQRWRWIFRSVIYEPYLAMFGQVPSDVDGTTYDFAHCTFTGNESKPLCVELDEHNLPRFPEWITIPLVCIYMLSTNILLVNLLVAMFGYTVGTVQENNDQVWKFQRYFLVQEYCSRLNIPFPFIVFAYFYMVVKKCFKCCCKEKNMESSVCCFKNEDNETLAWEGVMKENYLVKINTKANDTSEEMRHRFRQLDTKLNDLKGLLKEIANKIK

As to `Cn1cc(C(=O)N[C@@H](c2ccc(F)c(F)c2)c2ncccc2F)ccc1=O` [Example 332, (S)-N-((3,4-difluorophenyl)(3-fluoropyridin-2-yl)methyl)-1-methyl-6-oxo-1,6-dihydropyridine-3-carboxamide], the IC50 (in general, the concentration needed to halve the response being measured) was 268 nM. For `O=C(N[C@@H](c1ccc(C(F)(F)F)cc1)c1ncccc1C(F)(F)F)c1ccc(Cl)cc1` [Example 185, (S)-4-chloro-N-((4-(trifluoromethyl)phenyl)(3-(trifluoromethyl)pyridin-2-yl)methyl)benzamide], the IC50 stood at 29 nM.

For `O=C(O)c1ccc(C(=O)N[C@@H](c2ccc(C(F)(F)F)cc2)c2ncccc2F)nc1` [Example 280, (S)-6-(((3-Fluoropyridin-2-yl)(4-(trifluoromethyl)phenyl)-methyl)carbamoyl)nicotinic Acid], the half-inhibitory concentration (IC50) was determined as 22.1 nM. Take `Cc1ncsc1CCC(=O)N[C@@H](c1ccc(C(F)(F)F)cc1)c1ncccc1C(F)(F)F` [Example 145, (S)-3-(4-methylthiazol-5-yl)-N-((4-(trifluoromethyl)phenyl)(3-(trifluoromethyl)pyridin-2-yl)methyl)propanamide]: the IC50 came to 85.2 nM. With `Cc1ncoc1C(=O)N[C@@H](c1ccc(C(F)(F)F)cc1)c1ncccc1C(F)(F)F` [Example 190, (S)-4-methyl-N-((4-(trifluoromethyl)phenyl)(3-(trifluoromethyl)pyridin-2-yl)methyl)oxazole-5-carboxamide] the figure was 33.1 nM; with `O=C(NC(c1ccc(OC(F)(F)F)c(F)c1)c1ccc(F)cc1F)c1ccc(=O)[nH]c1` (centres unmarked) [Example 413, N-((2,4-difluorophenyl)(3-fluoro-4-(trifluoromethoxy)phenyl)methyl)-6-oxo-l,6-dihydropyridine-3-carboxamide], 197 nM; with `O=C(N[C@@H](c1ccc(C(F)(F)F)cc1)c1ncccc1C(F)(F)F)c1ccc2c(Cl)ccnc2c1` [Example 110, (S)-4-chloro-N-((4-(trifluoromethyl)phenyl)(3-(trifluoromethyl)pyridin-2-yl)methyl)quinoline-7-carboxamide 2,2,2-trifluoroacetate], 64.4 nM. With `O=C(O)c1ccc(C(=O)N[C@@H](c2ccc(OC(F)(F)F)cc2)c2ncccc2F)nc1` [Example 272, (S)-6-(((3-Fluoropyridin-2-yl)(4-(trifluoromethoxy)phenyl)-methyl)carbamoyl)nicotinic Acid] the figure was 11.9 nM. Take `O=C(N[C@@H](c1ccc(OC(F)(F)F)cc1)c1ncccc1F)c1ccc2cccnc2c1` [Example 2, (S)-N-((3-fluoropyridin-2-yl)(4-(trifluoromethoxy)phenyl)methyl)quinoline-7-carboxamide]: the IC50 is 17 nM.

Turning to `O=C(N[C@@H](c1ccc(OC(F)(F)F)c(F)c1)c1ncccc1F)c1ccc(O)cn1` [Example 389, (S)-N-((3-fluoro-4-(trifluoromethoxy)phenyl)(3-fluoropyridin-2-yl)methyl)-5-hydroxypicolinamide 2,2,2-trifluoroacetate], the IC50 is 18.3 nM.

As for `Cc1ncoc1C(=O)NC(c1ccc(C(F)(F)F)cc1)c1ncccc1F` (centres unmarked) [Example 221], the IC50 is 105 nM. Take `COc1ccc([C@H](NC(=O)c2ccc(=O)n(C)c2)c2ncccc2F)cc1F` [Example 337, (S)-N-((3-fluoro-4-methoxyphenyl)(3-fluoropyridin-2-yl)methyl)-1-methyl-6-oxo-1,6-dihydropyridine-3-carboxamide]: the IC50 was determined as 313 nM.

Regarding `O=C(N[C@@H](c1ccc(OC(F)(F)F)c(F)c1)c1ncccc1F)c1c[nH]c(=O)c(F)c1` [Example 400, (S)-5-fluoro-N-((3-fluoro-4-(trifluoromethoxy)phenyl)(3-fluoropyridin-2-yl)methyl)-6-oxo-1,6-dihydropyridine-3-carboxamide], the IC50 is 6.9 nM. In the case of `O=C1CCc2cc(C(=O)N[C@@H](c3ccc(OC(F)(F)F)cc3)c3ncccc3F)ccc2N1` [Example 352, (S)-N-((3-fluoropyridin-2-yl)(4-(trifluoromethoxy)phenyl)methyl)-2-oxo-1,2,3,4-tetrahydroquinoline-6-carboxamide], the IC50 stood at 18.8 nM. Consider `COc1ccnc(C(=O)N[C@@H](c2ccc(C(F)(F)F)cc2)c2ncccc2C(F)(F)F)c1` [Example 32, (S)-4-methoxy-N-((4-(trifluoromethyl)phenyl)(3-(trifluoromethyl)pyridin-2-yl)methyl)picolinamide], for which the IC50 was 143 nM. As to `CN1C(=O)c2ccc(C(=O)N[C@@H](c3ccc(C(F)(F)F)cc3)c3ncccc3C(F)(F)F)cc2C1=O` [Example 270, (S)-2-Methyl-1,3-dioxo-N-((4-(trifluoromethyl)phenyl)(3-(trifluoromethyl)pyridin-2-yl)methyl)isoindoline-5-carboxamide], the IC50 came out at 19.1 nM. Consider `O=C(NC(c1ccc(F)cc1)c1ccc(OC(F)(F)F)c(F)c1)c1ccc(=O)[nH]c1` (centres unmarked) [Example 411, N-((3-fluoro-4-(trifluoromethoxy)phenyl)(4-fluorophenyl)methyl)-6-oxo-1,6-dihydropyridine-3-carboxamide], for which the IC50 stood at 140 nM. Regarding `O=C(CCc1ccccn1)N[C@@H](c1ccc(C(F)(F)F)cc1)c1ncccc1C(F)(F)F` [Example 284, (S)-3-(Pyridin-2-yl)-N-((4-(trifluoromethyl)phenyl)(3-(trifluoromethyl)pyridin-2-yl)methyl)propanamide], the IC50 was 346 nM. As for `O=C(N[C@@H](c1ccc(OC(F)(F)F)cc1)c1ncccc1F)c1ccc2nnnn2c1` [Example 309, (S)-N-((3-fluoropyridin-2-yl)(4-(trifluoromethoxy)phenyl)methyl)tetrazolo[1,5-a]pyridine-6-carboxamide], the half-maximal inhibitory concentration (IC50) stood at 30.8 nM. With `Cn1cc(C(=O)N[C@@H](c2ccc(OC(F)(F)F)c(F)c2)c2ccccn2)ccc1=O` [Example 294, (S)-N-((3-fluoro-4-(trifluoromethoxy)phenyl)(pyridin-2-yl)methyl)-1-methyl-6-oxo-1,6-dihydropyridine-3-carboxamide], the IC50 amounted to 14.5 nM. With `O=C(N[C@@H](c1ccc(C(F)(F)F)cc1)c1ncccc1C(F)(F)F)c1ccc2c(O)ccnc2c1` [Example 106, (S)-4-hydroxy-N-((4-(trifluoromethyl)phenyl)(3-(trifluoromethyl)pyridin-2-yl)methyl)quinoline-7-carboxamide 2,2,2-trifluoroacetate] the figure was 8.9 nM; with `COC(=O)c1ccc(C(=O)N[C@@H](c2ccc(OC(F)(F)F)c(F)c2)c2ncccc2F)nc1` [Example 398, (S)-methyl 6-(((3-fluoro-4-(trifluoromethoxy)phenyl)(3-fluoropyridin-2-yl)methyl)carbamoyl)nicotinate], 189 nM. With `CC(C)(O)Cn1cc(C(=O)N[C@@H](c2ccc(C(F)(F)F)cc2)c2ncccc2F)ccc1=O` [Example 303, (S)-N-((3-fluoropyridin-2-yl)(4-(trifluoromethyl)phenyl)methyl)-1-(2-hydroxy-2-methylpropyl)-6-oxo-1,6-dihydropyridine-3-carboxamide], the IC50 is 143 nM. Consider `O=C(O)c1cccc(C(=O)N[C@@H](c2ccc(OC(F)(F)F)c(F)c2)c2ncccc2F)n1` [Example 415, (S)-6-(((3-fluoro-4-(trifluoromethoxy)phenyl)(3-fluoropyridin-2-yl)methyl)carbamoyl)picolinic acid trifluoroacetate], for which the concentration for half-maximal inhibition (IC50) worked out at 648 nM.

In the case of `O=C(NC(c1cccc(F)c1)c1ccc(OC(F)(F)F)c(F)c1)c1ccc(=O)[nH]c1` (centres unmarked) [Example 417, N-((3-fluoro-4-(trifluoromethoxy)phenyl)(3-fluorophenyl)methyl)-6-oxo-1,6-dihydropyridine-3-carboxamide], the IC50 amounted to 83 nM. As for `O=C1Cc2cc(C(=O)N[C@@H](c3ccc(OC(F)(F)F)c(F)c3)c3ncccc3F)ccc2N1` [Example 346, (S)-N-((3-fluoro-4-(trifluoromethoxy)phenyl)(3-fluoropyridin-2-yl)methyl)-2-oxoindoline-5-carboxamide], the IC50 amounted to 11.1 nM.

As to `O=C(N[C@@H](c1ccc(OC(F)(F)F)c(F)c1)c1ncccc1F)c1ccc(=O)[nH]n1` [Example 349, (S)-N-((3-fluoro-4-(trifluoromethoxy)phenyl)(3-fluoropyridin-2-yl)methyl)-6-oxo-1,6-dihydropyridazine-3-carboxamide], the IC50 worked out at 15.6 nM. For `N#Cc1cccc(C(=O)N[C@@H](c2ccc(C(F)(F)F)cc2)c2ncccc2F)c1` [Example 184, (S)-3-cyano-N-((3-fluoropyridin-2-yl)(4-(trifluoromethyl)phenyl)methyl)benzamide], the IC50 came to 52.9 nM. Regarding `CN(C)c1ccc(C(=O)N[C@@H](c2ccc(C(F)(F)F)cc2)c2ncccc2C(F)(F)F)cc1` [Example 196, (S)-4-(dimethylamino)-N-((4-(trifluoromethyl)phenyl)(3-(trifluoromethyl)pyridin-2-yl)methyl)benzamide], the IC50 was found to be 67.1 nM. On to `O=C(N[C@@H](c1ccc(C(F)(F)F)cc1)c1ncccc1C(F)(F)F)c1ccc(O)cn1` [Example 64, (S)-5-hydroxy-N-((4-(trifluoromethyl)phenyl)(3-(trifluoromethyl)pyridin-2-yl)methyl)picolinamide], for which the IC50 was determined as 20 nM. As for `COn1cc(C(=O)N[C@@H](c2ccc(C(F)(F)F)cc2)c2ncccc2F)ccc1=O` [Example 369, (S)-N-((3-fluoropyridin-2-yl)(4-(trifluoromethyl)phenyl)methyl)-1-methoxy-6-oxo-1,6-dihydropyridine-3-carboxamide], the IC50 turned out to be 3710 nM. As to `O=C(N[C@@H](c1ccc(C(F)(F)F)cc1)c1ncccc1C(F)(F)F)c1ccc2ncsc2c1` [Example 239, (S)-N-((4-(trifluoromethyl)phenyl)(3-(trifluoromethyl)pyridin-2-yl)methyl)benzo[d]thiazole-6-carboxamide], the 50% inhibitory concentration (IC50) came to 16 nM.
